The values that follow come from ChEMBL document CHEMBL1201862, “PubChem BioAssay data set” (2004).

Several values for one entry are separate records, joined by “and”; a condition that tells them apart may be missing. Equal values may be shown once. Activity calls are given as the source filed them.

In one experiment the target is Aspartyl aminopeptidase (Plasmodium falciparum 3D7, UniProt Q8I2J3). Nature of the experiment: Counterscreen for inhibitors of M1 and M17 aminopeptidases: QFRET-based biochemical high throughput dose response assay for inhibitors of the Plasmodium falciparum M18 Aspartyl Aminopeptidase (PFM18AAP). [Related PubChem assays: 1619 (Screening assay (M17LAP inhibitors).), 1445 (Screening assay (M1AAP inhibitors).)].
Sequence of Aspartyl aminopeptidase (Q8I2J3 whole entry): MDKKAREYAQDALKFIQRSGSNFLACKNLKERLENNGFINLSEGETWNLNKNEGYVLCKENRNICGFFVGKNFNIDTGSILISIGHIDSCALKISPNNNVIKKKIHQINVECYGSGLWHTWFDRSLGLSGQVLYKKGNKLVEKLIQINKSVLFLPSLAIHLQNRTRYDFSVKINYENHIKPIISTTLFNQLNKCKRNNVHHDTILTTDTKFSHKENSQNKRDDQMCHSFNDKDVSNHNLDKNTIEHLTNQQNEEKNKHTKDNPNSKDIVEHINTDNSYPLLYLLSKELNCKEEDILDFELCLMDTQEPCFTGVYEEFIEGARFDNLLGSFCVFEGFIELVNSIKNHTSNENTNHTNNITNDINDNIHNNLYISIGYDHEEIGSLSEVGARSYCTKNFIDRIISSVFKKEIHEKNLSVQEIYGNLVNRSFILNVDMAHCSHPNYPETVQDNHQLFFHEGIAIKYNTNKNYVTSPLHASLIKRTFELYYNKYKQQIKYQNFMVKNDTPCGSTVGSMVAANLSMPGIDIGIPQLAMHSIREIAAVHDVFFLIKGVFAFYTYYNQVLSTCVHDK

The next experiment concerns the target T1, Leucine aminopeptidase (Plasmodium falciparum 3D7, UniProt Q8IL11).
T1 sequence (Q8IL11 whole entry): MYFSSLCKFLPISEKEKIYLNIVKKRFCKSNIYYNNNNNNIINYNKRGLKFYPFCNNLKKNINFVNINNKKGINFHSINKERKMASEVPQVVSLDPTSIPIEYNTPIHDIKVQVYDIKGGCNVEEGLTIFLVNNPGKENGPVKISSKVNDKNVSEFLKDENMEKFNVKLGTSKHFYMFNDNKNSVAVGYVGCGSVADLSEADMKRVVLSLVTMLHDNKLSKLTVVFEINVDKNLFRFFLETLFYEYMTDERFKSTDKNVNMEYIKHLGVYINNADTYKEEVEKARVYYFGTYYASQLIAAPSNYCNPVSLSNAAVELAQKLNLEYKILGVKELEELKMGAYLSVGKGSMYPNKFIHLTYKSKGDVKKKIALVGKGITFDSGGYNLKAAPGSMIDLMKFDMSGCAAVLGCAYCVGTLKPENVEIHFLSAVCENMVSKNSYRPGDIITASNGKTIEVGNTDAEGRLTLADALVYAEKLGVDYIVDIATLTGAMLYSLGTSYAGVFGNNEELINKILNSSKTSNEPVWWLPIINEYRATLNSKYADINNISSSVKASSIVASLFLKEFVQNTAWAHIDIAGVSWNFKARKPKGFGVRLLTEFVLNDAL
Nature of the experiment: P. falciparum M17LAP inhibitors, primary screen, biochemical, fluorogenic H-Leu-NHMec substrate, 1536-well (AID 1619). The experiment is classed as functional.

The target in a further experiment is Procathepsin L (Homo sapiens, UniProt P07711). Nature of the experiment: CTSL1 protease inhibition – biochemical, QFRET, 1536-well, counter-screen for M1/M17 aminopeptidase inhibitor project, dose response (AID 2214). A general note: The purpose of a counterscreen is to sort out artefacts and off-target activity.
Sequence of Procathepsin L (P07711 whole entry): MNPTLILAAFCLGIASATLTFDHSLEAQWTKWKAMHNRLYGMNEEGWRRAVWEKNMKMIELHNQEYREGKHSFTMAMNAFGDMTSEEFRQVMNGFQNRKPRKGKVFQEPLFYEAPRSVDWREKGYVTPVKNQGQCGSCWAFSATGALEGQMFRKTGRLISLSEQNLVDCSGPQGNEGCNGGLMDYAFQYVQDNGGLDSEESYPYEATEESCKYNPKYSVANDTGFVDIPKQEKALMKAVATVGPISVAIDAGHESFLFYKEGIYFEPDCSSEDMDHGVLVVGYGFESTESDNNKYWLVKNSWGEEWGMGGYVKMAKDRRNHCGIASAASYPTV
Experiment [1] is described as follows: Luminescence Cell-Based Dose Confirmation HTS to Identify Inhibitors of Polyadenylation. The experiment is classed as functional.
The next experiment addresses Beta Lactamase (Pseudomonas aeruginosa, UniProt Q932Y6). The experiment in a line: BLA reporter interference, concentration series – BLA reporter cells, FRET fluorescence, artefact control for NOD2-RIPK2 interaction inhibitor project, dose response (AID 651552). The class given is functional, cell-based.
Experiment [2] has as its target T2, Bcl-2-related protein A1 (Mus musculus, UniProt Q07440).
T2 sequence (Q07440 whole entry): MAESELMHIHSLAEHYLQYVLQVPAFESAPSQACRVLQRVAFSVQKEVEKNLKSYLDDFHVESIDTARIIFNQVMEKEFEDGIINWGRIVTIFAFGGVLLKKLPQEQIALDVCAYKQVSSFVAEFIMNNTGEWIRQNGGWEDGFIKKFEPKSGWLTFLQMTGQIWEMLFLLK
Nature of the experiment: Bfl-1 binding inhibitors, SAR follow-up, biochemical, fluorescence polarization (AID 1070).

Experiment [3] in a line: viability loss of HPDE-C7K cells – cell-based, fluorescence, HTS, primary screen (AID 431). The class given is functional. The conditions noted are these: Homo sapiens.
Experiment [4] is described as follows: loss of viability in HepG2 cells – cell-based, CellTiter-Glo, cherry-picked, cytotoxicity control for Shn3 inhibitor project, dose response (AID 624134). The class given is functional. For orientation: In ATP-based viability assays light output follows the ATP content of the culture.
The nature of experiment [5]: non-specific 3'UTR reporter inhibition in Clone20-Shn3RL – cell-based, Renilla luciferase, cherry-picked, counter-screen for Shn3 inhibitor project, dose response (AID 624133). The experiment is classed as functional.
Experiment [6] is described as follows: viability loss in HEK293T cells – cell-based, cherry-picks, cytotoxicity control for HIV Vif inhibitor project, dose response (AID 652208). The experiment is classed as functional.
Experiment [7] in a line: HPDE-C7 pancreatic duct cell viability loss – fluorescence, HTS (AID 430). The experiment is classed as functional, cell-based. The conditions noted are these: Homo sapiens.
A short description of experiment [8]: Fluorescence-based cell-based high throughput dose response assay for inhibitors of the interaction of nucleotide-binding oligomerization domain containing 2 (NOD2) and the receptor-interacting serine-threonine kinase 2 (RIPK2). The experiment is classed as functional, Homo sapiens. The settings on record: Homo sapiens.
In a further experiment the test system is HEK293. Nature of the experiment: SAR analysis of compounds that are cytotoxic to HEK293 - Set 3. [Related pubchem assays (depositor defined):AID1575, AID1578, AID1848, AID1849, AID2001, AID2333, AID2334, AID2335, AID2337, AID2469]. The settings on record: Homo sapiens. The class given is functional, cell-based.
For experiment [9], the target named is T2, Bcl-2-related protein A1. The experiment in a line: small-molecule antagonists of Bfl-1/BH3 interaction – biochemical, TR-FRET, mouse Bfl-1, confirmation (AID 621).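 Also: TR-FRET binding of GST-Bfl-1 to FITC-labelled Bid peptide via terbium antibody.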 A general note: Time-resolved FRET reads energy transfer from a long-lived donor to a nearby acceptor.
Experiment [10] has as its target T2, Bcl-2-related protein A1. The experiment in a line: displacement of Bid BH3 peptide from Bfl-1 – biochemical, fluorescence polarization, FITC-Bid, mouse, primary screen (AID 432).
The target of experiment [11] is Glyceraldehyde-3-phosphate dehydrogenase (Homo sapiens, UniProt P04406).
Sequence of Glyceraldehyde-3-phosphate dehydrogenase (P04406 whole entry): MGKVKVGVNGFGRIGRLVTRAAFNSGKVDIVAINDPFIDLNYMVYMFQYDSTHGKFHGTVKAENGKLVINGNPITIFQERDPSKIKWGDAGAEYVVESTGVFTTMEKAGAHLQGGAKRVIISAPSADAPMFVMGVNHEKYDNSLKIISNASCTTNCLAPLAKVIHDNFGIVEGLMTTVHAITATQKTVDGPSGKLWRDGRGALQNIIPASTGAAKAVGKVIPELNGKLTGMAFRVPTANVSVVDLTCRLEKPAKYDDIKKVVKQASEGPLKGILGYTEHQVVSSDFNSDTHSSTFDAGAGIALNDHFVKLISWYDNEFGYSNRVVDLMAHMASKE
Experiment [12] is described as follows: NIH-3T3 fibroblast cytotoxicity, dose response, cytotoxicity control, cell-based, fluorescence, Alamar Blue, secondary assay (AID 2327).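 Also: NIH-3T3 mouse fibroblasts cultured with fluconazole at 8 µg/mL.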 The class given is functional.
The target in experiment [13] is Nucleotide-binding oligomerization domain-containing protein 2 (Homo sapiens, UniProt Q9HC29). The experiment in a line: inhibition of MDP-driven NOD2 NF-kB reporter – cell-based, set 3, SAR follow-up (AID 2799). The experiment is classed as functional.
Sequence of Nucleotide-binding oligomerization domain-containing protein 2 (Q9HC29 whole entry, the tested form may be a part): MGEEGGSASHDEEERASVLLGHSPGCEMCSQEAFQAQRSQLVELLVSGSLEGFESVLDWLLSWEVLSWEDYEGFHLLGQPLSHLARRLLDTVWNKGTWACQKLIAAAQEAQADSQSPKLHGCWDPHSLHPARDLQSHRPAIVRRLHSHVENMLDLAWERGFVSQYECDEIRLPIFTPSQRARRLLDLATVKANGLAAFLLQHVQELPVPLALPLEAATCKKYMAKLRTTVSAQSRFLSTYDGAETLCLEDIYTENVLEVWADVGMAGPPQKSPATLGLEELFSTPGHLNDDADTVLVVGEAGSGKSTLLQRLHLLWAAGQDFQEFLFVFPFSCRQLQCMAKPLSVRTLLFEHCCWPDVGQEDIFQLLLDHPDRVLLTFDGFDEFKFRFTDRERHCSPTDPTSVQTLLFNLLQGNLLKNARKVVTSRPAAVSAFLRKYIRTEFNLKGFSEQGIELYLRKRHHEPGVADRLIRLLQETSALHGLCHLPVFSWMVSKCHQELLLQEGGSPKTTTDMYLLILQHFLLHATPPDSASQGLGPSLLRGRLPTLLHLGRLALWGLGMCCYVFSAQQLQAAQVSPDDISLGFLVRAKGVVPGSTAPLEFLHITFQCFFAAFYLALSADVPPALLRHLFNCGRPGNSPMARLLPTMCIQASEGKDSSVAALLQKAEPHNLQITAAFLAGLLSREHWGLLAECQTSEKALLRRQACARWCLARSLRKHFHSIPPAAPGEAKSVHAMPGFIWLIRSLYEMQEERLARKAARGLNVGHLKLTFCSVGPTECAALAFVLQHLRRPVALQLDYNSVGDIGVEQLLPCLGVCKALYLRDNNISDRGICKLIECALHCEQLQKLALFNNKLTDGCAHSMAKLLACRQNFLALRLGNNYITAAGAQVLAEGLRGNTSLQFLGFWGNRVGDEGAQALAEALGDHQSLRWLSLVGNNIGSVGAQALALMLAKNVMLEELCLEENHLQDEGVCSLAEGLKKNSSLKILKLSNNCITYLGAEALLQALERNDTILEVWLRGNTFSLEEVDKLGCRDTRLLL
Experiment [14] is described as follows: fluconazole-exposed Candida albicans growth modulators – fluorescence, retest, confirmation (AID 2467). The class given is functional, cell-based.
A short description of experiment [15]: reduction of Shn3 3'UTR-driven luciferase in osteoblasts – cell-based, Clone20 osteoblasts, firefly luciferase, cherry-picked, dose response (AID 624132).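 Also: firefly luciferase luminescence from reporter carrying the Shn3 3'UTR in osteoblasts.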 The experiment is classed as functional.
For the next experiment, the target named is Tumor necrosis factor (Homo sapiens, UniProt P01375). The experiment in a line: analog potency on TNFa NF-kB signaling – cell-based, set 3, SAR follow-up (AID 2801). The experiment is classed as functional.
Sequence of Tumor necrosis factor (P01375 whole entry): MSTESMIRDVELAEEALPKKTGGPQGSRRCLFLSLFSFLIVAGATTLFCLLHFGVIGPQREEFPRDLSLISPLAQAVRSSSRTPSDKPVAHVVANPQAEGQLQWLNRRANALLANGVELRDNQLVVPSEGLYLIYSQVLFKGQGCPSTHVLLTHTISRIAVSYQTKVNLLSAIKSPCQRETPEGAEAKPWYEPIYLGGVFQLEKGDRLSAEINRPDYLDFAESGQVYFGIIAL
Another experiment has as its target Beta-galactosidase (Escherichia coli, UniProt Q8VNN2). Nature of the experiment: detection-enzyme interference by beta-gal modulators – biochemical, E. coli enzyme, set 3, artefact control for CCR6 antagonist project, dose response (AID 504712). The experiment is classed as functional.
Experiment [16] concerns the target T3, Hepatocyte nuclear factor 4-alpha (Homo sapiens, UniProt P41235).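 Also: biochemical luminescence-based dose-response counterscreen measuring inhibition of HNF4 dimerization, run alongside a screen for blockers of ABHD5–perilipin-5 interaction; split luciferase complementation of HNF4 fusion proteins in cell lysate measuring dimerization.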
T3 sequence (P41235 whole entry): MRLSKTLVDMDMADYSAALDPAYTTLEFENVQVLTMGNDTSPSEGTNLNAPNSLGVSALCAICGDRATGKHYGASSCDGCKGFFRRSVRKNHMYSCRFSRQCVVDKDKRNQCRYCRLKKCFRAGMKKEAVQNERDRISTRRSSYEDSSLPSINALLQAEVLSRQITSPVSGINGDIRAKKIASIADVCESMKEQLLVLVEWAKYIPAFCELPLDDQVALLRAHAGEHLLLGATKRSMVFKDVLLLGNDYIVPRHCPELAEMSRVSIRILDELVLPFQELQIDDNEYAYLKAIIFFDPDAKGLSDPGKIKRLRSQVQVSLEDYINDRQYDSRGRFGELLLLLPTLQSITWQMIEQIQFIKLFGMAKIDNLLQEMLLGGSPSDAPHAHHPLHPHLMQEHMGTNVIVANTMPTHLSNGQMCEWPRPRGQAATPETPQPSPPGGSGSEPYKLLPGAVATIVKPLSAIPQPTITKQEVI
The class given is functional, cell-based.

The nature of experiment [17]: reduced cellular PGC1a acetyl-lysine signal – cell-based, cherry-picked samples, dose response (AID 720514).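 Also: potency may reflect raised or lowered acetylation signal.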 The class given is functional.
Experiment [18] concerns the target G-protein coupled receptor 55 (Homo sapiens, UniProt Q9Y2T6). The experiment in a line: inhibition of LPI-stimulated GPR55 beta-arrestin translocation – imaging, U2OS, beta-arrestin-GFP, LPI agonist, primary screen (AID 2013).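 Also: antagonist potency measured as reduced agonist-driven arrestin aggregation.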 The class given is functional.
For experiment [19], the target named is T4, Nucleotide-binding oligomerization domain-containing protein 1 (Homo sapiens, UniProt Q9Y239).
T4 sequence (Q9Y239 whole entry): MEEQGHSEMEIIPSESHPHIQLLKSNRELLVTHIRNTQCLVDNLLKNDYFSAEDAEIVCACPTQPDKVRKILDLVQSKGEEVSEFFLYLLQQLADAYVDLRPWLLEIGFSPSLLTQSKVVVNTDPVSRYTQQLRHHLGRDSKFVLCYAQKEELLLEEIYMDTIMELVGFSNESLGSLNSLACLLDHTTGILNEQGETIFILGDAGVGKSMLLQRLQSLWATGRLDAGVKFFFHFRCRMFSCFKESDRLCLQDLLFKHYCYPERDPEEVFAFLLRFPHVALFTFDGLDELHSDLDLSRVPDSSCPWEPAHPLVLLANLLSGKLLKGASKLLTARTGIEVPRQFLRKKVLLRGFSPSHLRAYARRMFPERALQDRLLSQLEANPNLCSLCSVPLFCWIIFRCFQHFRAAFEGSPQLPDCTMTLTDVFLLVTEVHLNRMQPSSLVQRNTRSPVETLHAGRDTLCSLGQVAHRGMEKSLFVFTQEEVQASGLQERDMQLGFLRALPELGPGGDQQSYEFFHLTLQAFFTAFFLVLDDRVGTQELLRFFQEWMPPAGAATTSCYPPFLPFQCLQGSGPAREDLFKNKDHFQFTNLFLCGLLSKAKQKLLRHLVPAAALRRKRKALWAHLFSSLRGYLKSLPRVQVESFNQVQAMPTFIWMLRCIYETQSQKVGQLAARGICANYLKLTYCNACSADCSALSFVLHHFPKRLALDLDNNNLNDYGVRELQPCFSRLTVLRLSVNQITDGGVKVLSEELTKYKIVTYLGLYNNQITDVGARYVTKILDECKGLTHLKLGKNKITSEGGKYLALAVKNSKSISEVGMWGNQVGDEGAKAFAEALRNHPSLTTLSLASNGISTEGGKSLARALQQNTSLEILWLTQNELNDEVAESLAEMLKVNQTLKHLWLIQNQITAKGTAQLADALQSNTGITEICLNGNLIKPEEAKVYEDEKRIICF
Nature of the experiment: SAR analysis of compounds that inhibit NOD1 - Set 3. [Related pubchem assays (depositor defined):AID1566, AID1575, AID1578, AID1849, AID1852, AID2333, AID2335, AID2466]. The experiment is classed as functional.

Experiment [20] has as its target Aryl hydrocarbon receptor (Homo sapiens, UniProt P35869). The experiment in a line: Luminescence-based cell-based high throughput dose response assay for activators of the Aryl Hydrocarbon Receptor (AHR). [Related pubchem assays: 2796 (Primary screen (AHR activators in singlicate)), 2845 (Confirmation screen (AHR activators in triplicate)), 434939 (Counterscreen (PXR activators in triplicate)), 2804 (Summary (AHR activators))]. The experiment is classed as ADME.

Sequence of G-protein coupled receptor 55 (Q9Y2T6 whole entry, the tested form may be a part): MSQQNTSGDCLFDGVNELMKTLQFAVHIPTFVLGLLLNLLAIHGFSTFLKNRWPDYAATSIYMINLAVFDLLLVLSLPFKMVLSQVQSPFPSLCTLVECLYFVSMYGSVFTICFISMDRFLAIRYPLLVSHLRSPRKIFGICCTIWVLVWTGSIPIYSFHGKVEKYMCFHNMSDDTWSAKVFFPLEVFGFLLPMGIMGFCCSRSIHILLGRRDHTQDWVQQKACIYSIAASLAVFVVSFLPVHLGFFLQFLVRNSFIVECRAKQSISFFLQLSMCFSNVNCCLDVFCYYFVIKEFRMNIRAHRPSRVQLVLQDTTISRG
Sequence of Beta-galactosidase (Q8VNN2 whole entry, the tested form may be a part): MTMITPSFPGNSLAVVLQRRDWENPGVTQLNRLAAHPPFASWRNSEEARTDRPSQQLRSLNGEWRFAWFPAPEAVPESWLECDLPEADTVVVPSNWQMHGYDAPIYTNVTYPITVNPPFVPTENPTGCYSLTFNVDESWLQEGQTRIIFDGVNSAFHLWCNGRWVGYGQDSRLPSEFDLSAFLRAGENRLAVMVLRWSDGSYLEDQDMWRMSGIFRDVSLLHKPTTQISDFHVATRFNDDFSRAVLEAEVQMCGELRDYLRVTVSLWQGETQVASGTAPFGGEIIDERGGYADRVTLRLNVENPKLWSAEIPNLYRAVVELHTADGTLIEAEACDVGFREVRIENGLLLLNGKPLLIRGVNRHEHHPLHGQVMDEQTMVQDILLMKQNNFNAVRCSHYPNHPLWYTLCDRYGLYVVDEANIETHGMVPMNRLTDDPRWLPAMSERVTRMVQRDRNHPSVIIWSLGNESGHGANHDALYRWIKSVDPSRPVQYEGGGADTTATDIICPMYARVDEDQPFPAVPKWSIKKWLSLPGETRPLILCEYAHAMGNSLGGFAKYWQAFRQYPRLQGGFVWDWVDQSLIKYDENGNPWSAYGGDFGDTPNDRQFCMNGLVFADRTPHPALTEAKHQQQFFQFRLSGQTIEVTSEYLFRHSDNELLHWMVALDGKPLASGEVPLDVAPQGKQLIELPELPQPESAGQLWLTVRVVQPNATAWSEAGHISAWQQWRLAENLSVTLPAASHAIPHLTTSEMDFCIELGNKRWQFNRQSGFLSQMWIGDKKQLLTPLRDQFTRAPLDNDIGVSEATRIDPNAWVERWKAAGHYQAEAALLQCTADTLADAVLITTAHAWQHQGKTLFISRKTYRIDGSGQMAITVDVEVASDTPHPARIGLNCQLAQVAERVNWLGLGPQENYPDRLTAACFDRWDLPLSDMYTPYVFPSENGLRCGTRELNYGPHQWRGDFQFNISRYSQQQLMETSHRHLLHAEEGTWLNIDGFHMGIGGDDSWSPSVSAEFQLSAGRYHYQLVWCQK
Sequence of Aryl hydrocarbon receptor (P35869 whole entry): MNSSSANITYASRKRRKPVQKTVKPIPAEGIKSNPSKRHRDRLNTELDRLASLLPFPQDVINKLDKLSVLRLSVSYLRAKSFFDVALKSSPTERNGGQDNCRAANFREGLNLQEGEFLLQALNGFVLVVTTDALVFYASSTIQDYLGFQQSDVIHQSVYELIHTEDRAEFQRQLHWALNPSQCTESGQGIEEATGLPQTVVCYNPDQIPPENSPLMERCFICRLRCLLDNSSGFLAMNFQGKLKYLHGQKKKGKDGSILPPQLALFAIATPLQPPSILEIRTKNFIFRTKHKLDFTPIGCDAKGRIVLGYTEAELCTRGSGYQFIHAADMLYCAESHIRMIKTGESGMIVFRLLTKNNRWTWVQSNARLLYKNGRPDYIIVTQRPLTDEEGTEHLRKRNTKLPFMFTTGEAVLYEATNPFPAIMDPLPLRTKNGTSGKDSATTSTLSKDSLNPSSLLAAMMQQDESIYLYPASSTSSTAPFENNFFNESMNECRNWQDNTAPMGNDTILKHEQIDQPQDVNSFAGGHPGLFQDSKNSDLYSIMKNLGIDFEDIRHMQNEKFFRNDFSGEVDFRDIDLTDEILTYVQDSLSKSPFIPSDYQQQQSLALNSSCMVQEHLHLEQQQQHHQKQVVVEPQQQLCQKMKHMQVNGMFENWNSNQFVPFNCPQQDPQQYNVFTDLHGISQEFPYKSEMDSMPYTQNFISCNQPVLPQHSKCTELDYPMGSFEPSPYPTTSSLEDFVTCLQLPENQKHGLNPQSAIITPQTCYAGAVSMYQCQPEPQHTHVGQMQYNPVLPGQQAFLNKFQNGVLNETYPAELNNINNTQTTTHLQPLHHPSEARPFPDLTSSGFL
Sequence of Beta Lactamase (Q932Y6 whole entry): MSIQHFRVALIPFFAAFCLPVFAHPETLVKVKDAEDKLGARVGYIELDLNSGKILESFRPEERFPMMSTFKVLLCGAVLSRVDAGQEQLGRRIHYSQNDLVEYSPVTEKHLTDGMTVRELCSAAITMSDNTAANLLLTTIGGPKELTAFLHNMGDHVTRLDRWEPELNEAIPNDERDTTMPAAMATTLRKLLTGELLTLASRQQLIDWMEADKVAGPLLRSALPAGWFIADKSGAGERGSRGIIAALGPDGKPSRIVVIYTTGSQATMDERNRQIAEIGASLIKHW

Take `O=C(O)Cc1ccc(NC(=O)Nc2ccc(Br)cc2)cc1`: the values for the IC50 against Aspartyl aminopeptidase, at Leucine aminopeptidase and on Procathepsin L were > 73.5 µM (not active), < 1 µM (active) and > 59.6 µM (not active), respectively.

On to `CS(=O)(=O)N1CCN(CC2CC3C=CC2C3)CC1` (configuration not stated), for which, in experiment [1], the EC50 is > 120 µM (not active).

For `COc1ccc(-c2cc(N)n(S(=O)(=O)c3c(F)c(F)c(F)c(F)c3F)n2)cc1OC`, the IC50 is 34.3 µM (inactive) on Beta Lactamase; 5.39 µM (active) at Bcl-2-related protein A1 [2]; 0.951 µM (active) in [8]; > 20 µM (inactive) in the experiment on HEK293; 4.33 µM (active) and 4.96 µM (active) at Bcl-2-related protein A1 [9]; 5.82 µM (active) on Bcl-2-related protein A1 [10]. Also, the IC50 in experiment [11] is > 100 µM (not active); in experiment [13], 16.4 µM (active); at Tumor necrosis factor it was 10.3 µM (active); on Beta-galactosidase, > 66.6 µM (inactive); in experiment [16], 6.26 µM (active); in [18], 1.18 µM (active). Moreover, in [19], the IC50 is 16.2 µM (active). The concentration for a half-maximal effect (EC50) in [3] is 2.15 µM (active); in experiment [7], 2.82 µM (active); in [12], 5.96 µM (inconclusive); in experiment [14], 3.9 µM (active). The half-maximal activity concentration (AC50) in experiment [4] is 20.2 µM (active); in [5], 4.25 µM (active); in experiment [6] it was 3.69 µM (active); in [15] it was 0.896 µM (active); in [17] it was 8.51 µM (active).

On to `COc1ccc(/C=N/NC(=O)c2cccc(NC(=O)c3ccc(F)cc3)c2)c(C(=O)O)c1OC`, for which, in experiment [20], the half-maximal effective concentration (EC50) is 5.48 µM (active).

One may read the IC50 as the concentration that inhibits the measured activity by half. Usually EC50 stands for the concentration that produces a half-maximal response. One may read the AC50 as the concentration giving half of the maximal activity seen.
